Assays:
[1] = Study 1: single-escalating oral dose pharmacokinetics in healthy adult subjects (fed, and 150 mg fasted); type: in vivo, human; conditions: 50 to 800 mg, fed state; formal test inconclusive
Method: Study 1 was the first-in-human study that investigated the safety, tolerability, and PK of single-escalating doses of Compound 1, given orally, to healthy adult subjects. […] The data from this study were used for the selection of doses for Study 2.
In Study 1, Compound 1 was administered to healthy adult subjects as a single PO dose of 2, 10, 50, 150, 400, or 800 mg in the fed state and 150 mg in the fasted state. Absorption occurred moderately late, achieving peak Cmax between 4 to 6 hours following dosing in the fed state.
When Compound 1 was given in the fed state, median time to reach maximum plasma concentration (Tmax) occurred between 4 and 6 hours.
As part of this single-dose escalation study, a food effect PK investigation was performed to examine Compound 1 exposures in both the fed and fasted states at the 150-mg dose level. A total of 6 subjects were administered 150 mg Compound 1 in each of these 2 dosing groups. Of these 6 subjects, 4 subjects received Compound 1 at the same dose in both fed and fasted states. […] Table 6 provides a summary of the PK parameters at the 150-mg dose level under both fed and fasted state conditions.
PK parameters AUC0-∞ and Cmax were analyzed separately for dose proportionality for Compound 1 from 50 to 800 mg when administered in the fed state. […]

[2] = target: T1, CRF1 receptor (Homo sapiens, UniProt P34998); test: Phase 2 study in adults with classic CAH: hormone response (ACTH, 17-OHP, androstenedione); type: in vivo; conditions: CAH patients
T1 construct: from tissue; host or cells: living human patients
T1 sequence (P34998 24-415): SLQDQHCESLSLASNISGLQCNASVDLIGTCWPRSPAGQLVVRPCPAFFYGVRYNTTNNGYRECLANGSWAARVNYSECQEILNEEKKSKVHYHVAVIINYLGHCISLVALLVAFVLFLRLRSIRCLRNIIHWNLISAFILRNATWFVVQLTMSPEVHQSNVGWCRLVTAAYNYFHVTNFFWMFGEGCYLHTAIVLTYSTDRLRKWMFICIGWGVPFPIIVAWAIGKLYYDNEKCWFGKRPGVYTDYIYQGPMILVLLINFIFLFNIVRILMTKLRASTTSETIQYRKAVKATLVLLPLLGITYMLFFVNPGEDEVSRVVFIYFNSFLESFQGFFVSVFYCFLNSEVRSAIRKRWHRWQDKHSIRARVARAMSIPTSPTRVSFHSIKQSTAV
Description: Cohort A of the Phase 2 Study includes a 6-week, multiple-dose, dose escalation study of Compound 1 for the treatment of adults with classic CAH. After screening, eligible patients will be enrolled into a 6-week treatment period followed by a 4-week washout/safety follow-up period.
This cohort will be conducted in approximately 9 patients, who will receive Compound 1 daily for up to 6 weeks. Compound 1 will be administered as an oral daily dose. Patients will undergo titration of Compound 1 through three escalating dosage strengths at 2-week intervals. […]
Patients in Cohort B will receive study drug at 200 mg BID, with a dose in the morning and a dose in the evening, either with a meal or consumption of a standardized snack. For Cohorts C and D, the dose level and the frequency and timing of dosing will be determined based on interim data from the previous cohorts. […]
Outcome Measures Primary Outcome Measure: • 1. […] To assess the efficacy of Compound 1 in subjects with classic CAH as measured by percent and absolute change in 17-OHP compared to baseline. […] To explore the dose(s) of Compound 1 that cause pharmacodynamics changes in plasma concentrations of ACTH, androstenedione, and testosterone, as measured by the absolute and percent change from baseline by dose. • 4. […]

dose proportionality of Cmax [1]: more than dose proportional | morning rise in A4 [2]: attenuates
SMILES: CCC(CC)c1cc(C)nc2c(-c3sc(N4CCOCC4)nc3Cl)c(C)nn12 [Compound 1, 3-(4-Chloro-2-(morpholin-4-yl)thiazol-5-yl)-7-(1-ethylpropyl)-2,5-dimethylpyrazolo(1,5-a)pyrimidine]

From patent publication US12115166B2, “Corticotropin releasing factor receptor antagonists” (Spruce Biosciences, Inc., priority 2017, dated 2024)
